Measurements reported in patent US5776932A, “1,3,5-tribsubstituted indazole derivatives, processes for preparing, and for pharmacological treatment therewith” (Arzneimittelwerk Dresden G.m.b.H., priority 1996, dated 1998).

Experiments:
[1] = target: T1, arachidonate-5-lipoxygenase (Rattus norvegicus, UniProt P12527); test: Inhibition of 5-lipoxygenase in prepared macrophages from Wistar rats; format: cell-based; conditions: quadruple determinations, mean IC50, read-out: IC50 (50% inhibition of 5-lipoxygenase)
T1 construct: using prepared macrophages from Wistar rats; endogenous in cells; host or cells: prepared macrophages from Wistar rats
T1 sequence (P12527 1-673): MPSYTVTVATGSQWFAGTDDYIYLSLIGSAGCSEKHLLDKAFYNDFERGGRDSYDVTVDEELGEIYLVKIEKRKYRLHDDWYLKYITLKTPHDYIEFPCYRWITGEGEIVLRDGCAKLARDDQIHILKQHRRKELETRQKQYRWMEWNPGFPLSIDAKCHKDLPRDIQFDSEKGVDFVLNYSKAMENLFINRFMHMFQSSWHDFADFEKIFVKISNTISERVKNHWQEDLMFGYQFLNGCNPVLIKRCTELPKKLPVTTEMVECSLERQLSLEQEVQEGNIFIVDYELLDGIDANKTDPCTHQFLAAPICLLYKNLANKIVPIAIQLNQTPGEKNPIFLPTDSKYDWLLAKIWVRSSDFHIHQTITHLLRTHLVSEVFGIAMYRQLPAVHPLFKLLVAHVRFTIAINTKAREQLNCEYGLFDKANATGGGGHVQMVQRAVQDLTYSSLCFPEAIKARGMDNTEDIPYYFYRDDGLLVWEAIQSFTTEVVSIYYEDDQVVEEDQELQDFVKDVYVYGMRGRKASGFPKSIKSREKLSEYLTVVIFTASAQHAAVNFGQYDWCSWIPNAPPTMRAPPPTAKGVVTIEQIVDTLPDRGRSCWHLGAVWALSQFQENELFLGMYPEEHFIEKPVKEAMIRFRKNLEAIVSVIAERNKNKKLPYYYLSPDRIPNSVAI
Source text: Murphy, R. C. and Matthews, W. R., Purification and Characterization of Leukotrienes from Mastocytoma Cells, Methods in Enzymology, 86, pp. 409-416.
Argentiere, D. D., Ritchie, D. M. et al., Tepoxalin: A Dual Cyclooxygenase/5-Lipoxygenase Inhibitor of Arachidonic Acid Metabolism with Potent Anti-inflammatory Activity and a Favorable Gastrointestinal Profile, The Journal of Pharmacology and Experimental Therapeutics, Vol. 271, No. 3, 1399-1408, 1994.
Carter, G. W., Young, P. R. et al., 5-Lipoxygenase Inhibitory activity of Zileuton, The Journal of Pharmacology and Experimental Therapeutics, Vol. 256, No. 3, 1991.
The experiments were all conducted as quadruple determinations, by combining four partial experiments in each case were combined to determine the mean IC50 value.

[2] = test system: tracheal segments from actively sensitized guinea-pigs; test: Inhibition of the antigen (ovalbumin)-induced contraction of isolated tracheal segments from actively sensitized guinea-pigs; set-up: species or system guinea-pig; conditions: Cavia porcellus, under mepyramine and indomethacin protection
Method: For this purpose, isolated tracheal segments from guinea-pigs actively sensitized against ovalbumin by the s.c. administration of 10 μg of ovalbumin with 1 mg of aluminum hydroxide adjuvant, three weeks before removal of the organ, and a booster dose of the same amount of ovalbumin and aluminum hydroxide s.c. one week before removal of the organ. The segments were placed in organ baths filled with a nutrient solution aerated with carbogen which is a mixture of 95% oxygen and 5% carbon dioxide, and kept at 37° C., and were connected to isometric force transducers. After preincubation with mepyramine to eliminate histamine, and indomethacin for the inhibition of cyclooxygenase, 5×10^-7 mol/l carbachol (carbamylcholine chloride) was added and a contraction was induced. 10 μg/ml ovalbumin as an allergen was then added to the bath liquid and the maximum contraction of the tracheal segments which was thereby induced was correlated with the effect of the carbachol as control (=100%). The test substances were added to the organ bath 30 minutes before the allergen-induced contraction. Table 2 below indicates the IC50 values, i.e. the concentrations which cause a 50% inhibition of the contraction of isolated tracheal segments from the guinea-pig. The IC50 values were determined by testing 3-4 concentrations on 4-8 organs in each case.

[3] = test system: SRS-A bronchoconstriction in guinea-pigs sensitized with ovalbumin; test: SRS-A bronchoconstriction in anaesthetized, ovalbumin-sensitized guinea-pigs after inhalation of antigen; format: in vivo; conditions: -2 hrs, 1% OA, 20 inspirations
Method: For this purpose, guinea-pigs are actively sensitized against ovalbumin (OA) with 20 μg OA+20 mg Al(OH)3 in 0.5 ml, administered intraperitoneally (i.p.) and a booster dose of the same is administered 14 days later. One week after the booster dose, the animals are i.p. anaesthetized with urethane and connected to an apparatus (Mumed Physiological Recorder 800) for the determination of pulmonary function parameters. The animals are pretreated with mepyramine to antagonize the histamine, with indomethacin to inhibit the formation of prostaglandins, and with propanolol to eliminate β-adrenergic mechanisms. If an allergic reaction is induced after this treatment, the associated bronchospam is extensively attributable to the effect of leukotrienes.
Before the experiment the test substances were administered orally two hours before the challenge. After an equilibration period an asthmatic challenge attack is induced by the nebulization of a 1% ovalbumin solution over 20 inspirations.
The drop in dynamic compliance is used as a suitable and well reproducible parameter for characterizing the action of leukotrienes. Under control conditions, after pretreatment and ovalbumin challenge, guinea-pigs react with a slow drop in compliance of c. 30-40% over 15 minutes.

late phase eosinophilia = test: Inhibition of late phase eosinophilia 24 hours after the inhalational ovalbumin challenge on actively sensitized guinea-pigs; format: in vivo; conditions: -2 h; for EOS, B (eosinophils in the group treated with the substance, with challenge): x ± s
Source text: Eosinophilic granulocytes play an important part in the transition of allergic diseases, e.g. bronchial asthma, to the chronic stage. Thus the bronchoalveolar lavage fluid (BAL) contains an increased number of eosinophils a few hours after an allergen-induced asthmatic attack. Eosinophils are expected to play an important part in cell damage since they contain histotoxic proteins, like major basic protein (MBP) and eosinophil cation protein (ECP), in their granula. It is also assumed that substances which prevent the infiltration of eosinophils have a therapeutic action against allergic diseases like bronchial asthma.
The inhibition of eosinophil infiltration by the substances was tested in vivo on guinea-pigs actively sensitized against ovalbumin by the substantenous administration of 10 μg of OA, with 1 μg of aluminum hydroxide adjuvant, three weeks before the beginning of the experiment, and a booster dose containing the same amount of OA and aluminum hydroxide was administrated substantaneously one week before the beginning of the experiment. Three weeks after the first sensitization, the animals were placed in a plastic box and exposed to an aerosol of 0.5% OA dissolved in a physiological saline solution. The nebulization time was 20-30 seconds. After 24 hours the animals were intraperitoneally anaesthetized with 1.5 g/kg body weight ethylurethane and a bronchioalveolar lavage was performed with 2×5 ml of physiological saline solution. The lavage fluid was collected and centrifuged at 400 G for 10 minutes and the cell pellet was then resuspended in 1 ml of physiological saline solution. The eosinophils were microscopically counted in a Neubauer chamber after staining using the No. 5877 Becton-Dickinson test kit for eosinophilia. The number of eosinophils was indicated in millions per animal. Each test was also carried out with two control groups with and without antigen challenge.
The percentage inhibition of the eosinophilia in the experimental groups treated with the substance is calculated by the following formula:
(A-C)-(B-C)/(A-C)×100=% inhibition
The test substances were administered orally or intraperitoneally as a triturate in 0.5% 5-hydroxyethylcellulose two hours before the antigen challenge.

Compound	IC50 [1] [nM]	other results
1-(2,4-dimethylbenzyl)-5-methoxy-1H-indazole-3-ol [Example 18]	977	–
COc1ccc2c(c1)c(O)nn2Cc1cccc(Cl)c1F [Example 10, 1-(3-chloro-2-flurobenzyl)-5-methoxy-1H-indazole-3-ol]	829	–
COc1ccc2c(c1)c(O)nn2Cc1cc2c(cc1Cl)OCO2 [Example 31]	874	–
COc1ccc2c(c1)c(O)nn2Cc1cccc(Cl)c1 [Example 3, 1-(3-chlorobenzyl)-5-methoxy-1H-indazole-3-ol]	470	–
COc1ccc2c(c1)c(O)nn2CCOc1ccccc1 [Example 37, 5-methoxy-1-(3-phenoxyethyl)-1H-indazole-3-ol]	745	–
COc1ccc2c(c1)c(O)nn2Cc1ccc(C(C)(C)C)cc1 [Example 19, 1-(4-tert-butylbenzyl)-5-methoxy-1H-indazole-3-ol]	696	–
COc1ccc2c(c1)c(O)nn2Cc1ccc(OCc2ccccc2)cc1 [[no label printed]]	–	% drop in dyn. compliance ([3]; 5.0 mg/kg oral): 32 ± 13%; % inhibition ([3]; 5.0 mg/kg oral): 20%; % drop in dyn. compliance ([3]; 10.0 mg/kg oral): 9.3 ± 11%; % inhibition ([3]; 10.0 mg/kg oral): 77%
COc1ccc2c(c1)c(O)nn2Cc1c(Cl)cccc1Cl [Example 8, 1-(2,6-dichlorobenzl)-5-methoxy-1H-indazole3-ol]	750	–
COc1ccc2c(c1)c(O)nn2Cc1ccc(Br)cc1 [Example 11, 1-(4-bromobenzyl)-5-methoxy-1H-indazole-3-ol]	765	–
COc1ccc2c(c1)c(O)nn2Cc1ccccc1Cl [Example 4, 1-(2-chlorobenzyl)-5-methoxy-1H-indazole-3-ol]	710	–
COc1ccc2c(c1)c(O)nn2CCCOc1ccccc1 [Example 38, 5-methoxy-1-(3-phenoxypropyl)-1H-indazole-3-ol]	655	–
COc1ccc2c(c1)c(O)nn2Cc1cccs1 [Example 24, 5-methoxy-1-thiophen-2-ylmethyl-1H-indazole-3-ol]	500	–
Oc1ccc2c(c1)c(O)nn2Cc1ccc(Cl)c(Cl)c1 [Example 51, 1-(3,4-dichlorobenzyl)-1H-indazole-3,5-diol]	748	–
COc1ccc2c(c1)c(O)nn2CCCC(=O)c1ccc(F)cc1 [Example 42, 1-(4-fluorophenyl)-4-(3-hydroxy-5-methoxy-1H-indazole-1-yl)butan-1-one]	679	–

Continued, in another order:

IC50 [1] [nM]	Compound	other results
86	COc1ccc2c(c1)c(O)nn2Cc1ccc(OCc2ccc3ccccc3n2)cc1 [Example 49]	–
299	COc1ccc2c(c1)c(O)nn2CC=Cc1ccccc1 [Example 36, 5-methoxy-1-(3-phenylallyl)-1H-indazole-3-ol]	–
44	COc1ccc2c(c1)c(O)nn2Cc1ccc(OCc2ccc3ccccc3n2)cc1 [Example 50]	IC50 ([2]; carbachol = 100%): 2900 nM; % drop in dyn. compliance ([3]; 5.0 mg/kg oral): 22 ± 10%; % inhibition ([3]; 5.0 mg/kg oral): 45%; % drop in dyn. compliance ([3]; 10.0 mg/kg oral): 12 ± 11%; % inhibition ([3]; 10.0 mg/kg oral): 70%; % inhibition (eosinophilia) (late phase eosinophilia; 10 mg/kg i.p.): 46.0%; EOS, B (eosinophils in the group treated with the substance, with challenge) (late phase eosinophilia; 10 mg/kg i.p.): 3.8 ± 2.8 mill./animal; % inhibition (eosinophilia) (late phase eosinophilia; 30 mg/kg p.o.): 34.0%; EOS, B (eosinophils in the group treated with the substance, with challenge) (late phase eosinophilia; 30 mg/kg p.o.): 6.0 ± 3.4 mill./animal
400	COc1ccc2c(c1)c(O)nn2Cc1ccc(Cl)cc1 [Example 2, 1-(4-chlorobenzyl)-5-methoxy-1H-indazole-3-ol]	–
258	Oc1ccc2c(c1)c(O)nn2Cc1ccc(Cl)cc1Cl [Example 52, 1-(2,4-dichlorobenzyl)-1H-indazole-3,5-diol]	–
278	O=C(Nc1ccc(Cl)c(Cl)c1)Nc1ccc2c(c1)c(O)nn2Cc1ccc(Cl)cc1 [Example 61, 1-[1-(4-chlorobenzyl)-3-hydroxy-1H-indazole-5-yl]-3-(3,4-dichlorophenyl)urea]	–
100	COc1ccc2c(c1)c(O)nn2Cc1ccc(Cl)cc1Cl [Example 7, 1-(2,4-dichlorobenzyl)-5-methoxy-1H-indazole-3-ol]	–
171	COc1ccc2c(c1)c(O)nn2Cc1ccc(OCc2ccccc2)cc1 [Example 1, 1-(4-benzyloxybenzyl)-5-methoxy-1H-indazole-3-ol]	inhibition at 1 µM ([2]; at 1.0 μmol/l, read-out: maximum inhibition (ovalbumin-induced contraction)): 36%; % inhibition (eosinophilia) (late phase eosinophilia; 1 mg/kg i.p.): 48.7%; EOS, B (eosinophils in the group treated with the substance, with challenge) (late phase eosinophilia; 1 mg/kg i.p.): 3.3 ± 1.6 mill./animal; % inhibition (eosinophilia) (late phase eosinophilia; 30 mg/kg p.o.): 36.0%; EOS, B (eosinophils in the group treated with the substance, with challenge) (late phase eosinophilia; 30 mg/kg p.o.): 3.7 ± 1.7 mill./animal
150	COc1ccc2c(c1)c(O)nn2CCC(=O)c1ccccc1 [Example 39, 3-(3-hydroxy-5-methoxyindazole-1-yl)phenyl-propan-1-one]	–
265	COc1ccc2c(c1)c(O)nn2Cc1ccc2ccccc2c1 [Example 23, 5-methoxy-1-naphthalen-2-ylmethyl-1H-indazole-3-ol]	–
257	COc1ccc2c(c1)c(O)nn2Cc1ccc(-c2ccccc2)cc1 [Example 22, 1-biphenyl-4-ylmethyl-5-methoxy-1H-indazole-3-ol]	–
